{"source": "ChEMBL document CHEMBL1201862", "about": "“PubChem BioAssay data set” (2004)", "key": {"[1]": {"experiment": "off-target signal loss in HeLa-CEM21 co-culture – HeLa F-luc CTL cells, cherry-picked, counter-screen for HIV-1 Env fusion inhibitor project, dose response (AID 652040);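 note: potency for signal decrease marking cytotoxic or nonspecific inhibition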", "assay_type": "functional, cell-based"}, "[2]": {"experiment": "ZM109 Env clade C HIV-1 fusion inhibitors, dose response, HeLa effector, CEM target cells, luciferase, cherry-pick (AID 652058)", "assay_type": "functional, cell-based"}, "[3]": {"experiment": "inhibitors of clade B AD8 Env fusion, dose response, cell-based, cherry-pick (AID 652062);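 note: potency is for inhibitors of fusion seen as a drop in luminescence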", "assay_type": "functional"}, "[4]": {"experiment": "inhibitors of HIV Env-driven cell fusion, dose response, cherry-pick (AID 652057)", "assay_type": "functional, cell-based"}, "Paired box protein Pax-8": {"biological_target": "Paired box protein Pax-8 (Homo sapiens, UniProt Q06710)", "sequence (Q06710 whole entry)": "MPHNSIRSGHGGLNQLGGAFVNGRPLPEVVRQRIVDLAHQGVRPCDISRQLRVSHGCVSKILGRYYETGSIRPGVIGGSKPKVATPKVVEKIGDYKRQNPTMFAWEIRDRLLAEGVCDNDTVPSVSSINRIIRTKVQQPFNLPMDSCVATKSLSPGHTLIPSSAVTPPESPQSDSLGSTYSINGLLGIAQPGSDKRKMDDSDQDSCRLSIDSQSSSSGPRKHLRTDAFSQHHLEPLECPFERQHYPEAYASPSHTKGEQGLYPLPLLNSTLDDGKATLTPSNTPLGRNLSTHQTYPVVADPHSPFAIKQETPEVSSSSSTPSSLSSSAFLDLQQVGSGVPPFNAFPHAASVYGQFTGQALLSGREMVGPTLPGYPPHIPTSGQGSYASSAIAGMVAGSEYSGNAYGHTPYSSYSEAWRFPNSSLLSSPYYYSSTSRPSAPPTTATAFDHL", "experiment": "inhibitors of PAX8-driven TPO luciferase reporter, dose response, RMG-I cells, cherry-pick (AID 687027);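 note: luciferase reporter driven by Pax8 target thyroperoxidase promoter measured by SteadyGlo luminescence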", "assay_type": "functional, cell-based"}, "[5]": {"experiment": "NIH:OVCAR-3 ovarian cancer cell cytotoxicity, dose response, PAX8 inhibitor project, plate reader, dry powder samples (AID 743044)", "assay_type": "functional, cell-based"}, "[6]": {"experiment": "cytotoxicity in OVCAR8 ovarian cancer cells, dose response, PAX8 project, cell-based, plate reader, dry powder samples (AID 743197)", "assay_type": "functional", "details": "OVCAR-8"}, "[7]": {"biological_target": "Peroxisome proliferator-activated receptor gamma/Nuclear receptor coactivator 2 (Homo sapiens, UniProt P37231)", "sequence (P37231 whole entry)": "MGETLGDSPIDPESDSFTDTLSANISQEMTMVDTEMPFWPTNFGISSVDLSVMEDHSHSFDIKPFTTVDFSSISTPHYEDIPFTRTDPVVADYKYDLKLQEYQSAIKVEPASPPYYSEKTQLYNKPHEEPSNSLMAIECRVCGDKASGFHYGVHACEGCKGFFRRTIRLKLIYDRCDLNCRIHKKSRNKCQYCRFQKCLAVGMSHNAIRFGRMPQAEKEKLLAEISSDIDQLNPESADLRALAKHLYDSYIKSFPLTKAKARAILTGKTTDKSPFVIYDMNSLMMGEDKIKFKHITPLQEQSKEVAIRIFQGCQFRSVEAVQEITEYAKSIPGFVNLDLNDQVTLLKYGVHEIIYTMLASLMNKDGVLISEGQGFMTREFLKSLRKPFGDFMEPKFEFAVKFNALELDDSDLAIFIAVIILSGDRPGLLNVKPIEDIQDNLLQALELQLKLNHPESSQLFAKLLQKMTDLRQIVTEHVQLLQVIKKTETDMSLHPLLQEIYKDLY", "sequence (Q15596 whole entry, further chain)": "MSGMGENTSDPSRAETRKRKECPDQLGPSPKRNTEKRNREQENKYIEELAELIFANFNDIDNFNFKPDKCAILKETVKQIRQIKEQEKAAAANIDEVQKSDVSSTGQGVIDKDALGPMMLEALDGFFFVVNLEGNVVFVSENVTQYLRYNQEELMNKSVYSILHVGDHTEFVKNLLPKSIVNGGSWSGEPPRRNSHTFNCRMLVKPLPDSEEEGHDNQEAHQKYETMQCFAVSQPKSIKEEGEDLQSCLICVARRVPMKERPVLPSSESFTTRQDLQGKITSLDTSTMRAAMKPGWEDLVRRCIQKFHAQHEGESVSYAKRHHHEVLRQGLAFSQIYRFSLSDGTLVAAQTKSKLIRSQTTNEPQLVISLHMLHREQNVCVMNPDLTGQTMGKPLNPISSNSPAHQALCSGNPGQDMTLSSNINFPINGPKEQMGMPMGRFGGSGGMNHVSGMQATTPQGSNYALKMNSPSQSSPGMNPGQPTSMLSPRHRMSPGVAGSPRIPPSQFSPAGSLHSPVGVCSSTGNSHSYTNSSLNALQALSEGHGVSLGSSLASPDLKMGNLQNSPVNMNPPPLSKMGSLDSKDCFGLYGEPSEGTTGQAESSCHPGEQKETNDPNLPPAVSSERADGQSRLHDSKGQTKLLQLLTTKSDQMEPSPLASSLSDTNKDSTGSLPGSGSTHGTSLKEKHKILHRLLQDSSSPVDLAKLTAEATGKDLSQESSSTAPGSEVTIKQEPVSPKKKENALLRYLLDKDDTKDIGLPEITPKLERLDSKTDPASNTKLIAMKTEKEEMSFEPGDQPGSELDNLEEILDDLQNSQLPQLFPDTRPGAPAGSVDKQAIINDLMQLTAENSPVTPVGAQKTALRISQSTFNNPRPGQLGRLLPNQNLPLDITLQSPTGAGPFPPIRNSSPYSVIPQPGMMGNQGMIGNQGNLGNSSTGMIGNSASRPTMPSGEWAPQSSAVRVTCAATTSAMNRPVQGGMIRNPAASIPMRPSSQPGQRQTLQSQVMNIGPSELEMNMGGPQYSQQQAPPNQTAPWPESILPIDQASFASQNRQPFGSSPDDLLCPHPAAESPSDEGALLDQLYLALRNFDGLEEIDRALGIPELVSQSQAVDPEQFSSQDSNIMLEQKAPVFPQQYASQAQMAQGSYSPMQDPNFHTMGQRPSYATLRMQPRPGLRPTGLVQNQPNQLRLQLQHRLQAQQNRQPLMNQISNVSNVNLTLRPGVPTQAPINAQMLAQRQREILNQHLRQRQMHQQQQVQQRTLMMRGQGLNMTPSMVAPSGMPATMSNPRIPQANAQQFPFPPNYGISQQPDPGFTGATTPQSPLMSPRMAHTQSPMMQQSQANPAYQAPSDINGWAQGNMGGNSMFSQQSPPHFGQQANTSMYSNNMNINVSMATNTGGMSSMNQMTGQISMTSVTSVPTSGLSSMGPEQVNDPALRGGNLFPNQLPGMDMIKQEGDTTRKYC", "assay_type": "functional"}, "[8]": {"biological_target": "Peroxisome proliferator-activated receptor gamma/Nuclear receptor coactivator 3 (Homo sapiens, UniProt P37231)", "sequence (P37231 whole entry)": "as the sequence (P37231 whole entry) above", "sequence (Q9Y6Q9 whole entry, further chain)": "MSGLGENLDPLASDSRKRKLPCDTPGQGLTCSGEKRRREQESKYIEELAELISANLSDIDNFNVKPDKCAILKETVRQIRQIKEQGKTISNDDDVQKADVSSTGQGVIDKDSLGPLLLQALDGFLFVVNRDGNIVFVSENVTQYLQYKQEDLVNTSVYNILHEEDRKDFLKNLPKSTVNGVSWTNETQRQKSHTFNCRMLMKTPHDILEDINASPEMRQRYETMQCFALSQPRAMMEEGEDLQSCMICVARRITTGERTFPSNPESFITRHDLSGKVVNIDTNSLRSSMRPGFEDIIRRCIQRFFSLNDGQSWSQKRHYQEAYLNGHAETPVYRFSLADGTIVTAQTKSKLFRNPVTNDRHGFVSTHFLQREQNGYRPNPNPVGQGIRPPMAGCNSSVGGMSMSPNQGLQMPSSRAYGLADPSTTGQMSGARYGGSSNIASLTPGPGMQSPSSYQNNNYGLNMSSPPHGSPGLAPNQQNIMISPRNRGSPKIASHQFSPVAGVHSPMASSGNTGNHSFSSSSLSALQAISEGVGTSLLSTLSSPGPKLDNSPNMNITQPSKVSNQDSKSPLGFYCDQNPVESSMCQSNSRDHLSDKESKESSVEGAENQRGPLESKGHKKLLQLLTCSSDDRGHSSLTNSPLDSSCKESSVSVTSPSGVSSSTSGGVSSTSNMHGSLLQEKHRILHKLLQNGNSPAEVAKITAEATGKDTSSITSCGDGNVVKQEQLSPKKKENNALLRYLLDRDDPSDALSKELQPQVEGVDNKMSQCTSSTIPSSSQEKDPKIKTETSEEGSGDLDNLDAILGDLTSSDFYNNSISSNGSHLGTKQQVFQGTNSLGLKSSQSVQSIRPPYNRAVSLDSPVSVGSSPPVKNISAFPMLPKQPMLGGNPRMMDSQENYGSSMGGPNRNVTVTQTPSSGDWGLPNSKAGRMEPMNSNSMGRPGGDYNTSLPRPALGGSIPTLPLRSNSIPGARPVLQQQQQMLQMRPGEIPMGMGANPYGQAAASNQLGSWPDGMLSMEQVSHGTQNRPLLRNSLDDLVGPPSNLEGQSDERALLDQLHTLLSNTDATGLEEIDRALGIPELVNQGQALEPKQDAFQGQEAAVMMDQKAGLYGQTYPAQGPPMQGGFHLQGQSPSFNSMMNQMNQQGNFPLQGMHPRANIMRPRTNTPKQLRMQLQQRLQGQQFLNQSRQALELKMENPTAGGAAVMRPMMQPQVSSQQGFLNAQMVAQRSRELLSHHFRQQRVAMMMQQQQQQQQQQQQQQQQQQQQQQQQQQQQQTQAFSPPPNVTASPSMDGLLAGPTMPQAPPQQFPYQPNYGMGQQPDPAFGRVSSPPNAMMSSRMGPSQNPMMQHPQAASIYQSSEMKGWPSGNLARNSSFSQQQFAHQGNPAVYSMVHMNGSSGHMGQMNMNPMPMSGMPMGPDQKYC", "assay_type": "functional"}, "[9]": {"biological_target": "Peroxisome proliferator-activated receptor gamma/Nuclear receptor coactivator 1 (Homo sapiens, UniProt P37231)", "assay_type": "functional"}, "[10]": {"experiment": "Counterscreen for inhibitors of Trypanosoma brucei methionyl tRNA synthetase (MetRS): Luminescence-based cell-based high throughput dose response assay to identify compounds that are cytotoxic to Jurkat human T lymphocyte cells.", "assay_type": "functional"}, "[11]": {"biological_target": "T1, Methionyl-tRNA synthetase, putative (Trypanosoma brucei brucei, UniProt Q38C91)", "T1 sequence (Q38C91 whole entry)": "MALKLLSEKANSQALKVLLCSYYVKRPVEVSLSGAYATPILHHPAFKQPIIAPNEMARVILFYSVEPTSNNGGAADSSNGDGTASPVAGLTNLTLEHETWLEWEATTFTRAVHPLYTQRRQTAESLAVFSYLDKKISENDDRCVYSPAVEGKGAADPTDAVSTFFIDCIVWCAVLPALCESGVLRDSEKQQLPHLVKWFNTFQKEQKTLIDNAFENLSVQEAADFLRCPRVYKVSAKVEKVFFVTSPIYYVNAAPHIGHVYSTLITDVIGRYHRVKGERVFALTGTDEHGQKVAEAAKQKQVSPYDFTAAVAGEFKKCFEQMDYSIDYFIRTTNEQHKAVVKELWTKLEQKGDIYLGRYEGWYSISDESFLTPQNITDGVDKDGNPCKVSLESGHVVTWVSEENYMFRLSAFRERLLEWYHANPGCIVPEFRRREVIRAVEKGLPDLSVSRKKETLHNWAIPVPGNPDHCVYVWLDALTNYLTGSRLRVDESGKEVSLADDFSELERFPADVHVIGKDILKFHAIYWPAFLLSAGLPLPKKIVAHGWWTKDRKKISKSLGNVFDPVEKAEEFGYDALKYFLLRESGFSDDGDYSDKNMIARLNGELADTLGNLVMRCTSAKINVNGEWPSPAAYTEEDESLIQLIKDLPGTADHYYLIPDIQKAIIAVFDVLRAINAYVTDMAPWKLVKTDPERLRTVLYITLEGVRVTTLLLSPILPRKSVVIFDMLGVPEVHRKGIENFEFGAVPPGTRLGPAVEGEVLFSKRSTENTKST", "assay_type": "functional, Trypanosoma brucei brucei strain 927/4 GUTat10.1"}, "[12]": {"biological_target": "T1, Methionyl-tRNA synthetase, putative", "assay_type": "functional, Trypanosoma brucei brucei strain 927/4 GUTat10.1", "remark": "listed apart in the source"}, "[13]": {"biological_target": "T2, Oxysterols receptor LXR-beta (Homo sapiens, UniProt P55055)", "T2 sequence (P55055 whole entry)": "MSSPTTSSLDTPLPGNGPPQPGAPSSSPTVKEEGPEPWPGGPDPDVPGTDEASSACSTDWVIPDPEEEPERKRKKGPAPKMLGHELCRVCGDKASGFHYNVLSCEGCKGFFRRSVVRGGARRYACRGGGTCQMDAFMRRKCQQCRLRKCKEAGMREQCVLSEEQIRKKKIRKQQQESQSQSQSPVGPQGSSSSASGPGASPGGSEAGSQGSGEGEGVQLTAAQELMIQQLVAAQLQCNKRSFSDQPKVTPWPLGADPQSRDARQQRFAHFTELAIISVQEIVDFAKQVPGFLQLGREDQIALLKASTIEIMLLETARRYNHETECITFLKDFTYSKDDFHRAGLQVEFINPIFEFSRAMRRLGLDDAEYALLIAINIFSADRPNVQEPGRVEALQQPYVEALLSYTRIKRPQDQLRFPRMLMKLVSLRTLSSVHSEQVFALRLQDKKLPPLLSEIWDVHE", "assay_type": "functional, cell-based"}}, "note": "The source made the active and inactive calls."}
{"smiles": "C[C@H]1CN([C@@H](C)CO)C(=O)c2c(c3ccccc3n2C)-c2ccccc2CO[C@H]1CN(C)C(=O)Nc1cccc(F)c1", "values": [{"measurement": "AC50", "setting": "[1]", "value": "0.362 µM (active)"}, {"measurement": "AC50", "setting": "[2]", "value": "< 0.26 µM (active)"}, {"measurement": "AC50", "setting": "[3]", "value": "2.88 µM (active)"}, {"measurement": "AC50", "setting": "[4]", "value": "< 0.26 µM (active)"}]}
{"smiles": "C[C@@H]1CCCCO[C@@H](CN(C)C(=O)Nc2ccc(C(F)(F)F)cc2)[C@H](C)CN([C@H](C)CO)C(=O)c2cc(NS(=O)(=O)c3ccc(Cl)cc3)ccc2O1", "values": [{"measurement": "AC50", "setting": "Paired box protein Pax-8", "value": "3.25 µM (active)"}, {"measurement": "AC50", "setting": "[5]", "value": "27.8 µM (active)"}, {"measurement": "AC50", "setting": "[6]", "value": "32 µM (active)"}]}
{"smiles": "CCOC(=O)C1=NN(c2cccc(Cl)c2)C2=NC(C)=C(C(=O)OC)C(c3cccs3)N12", "note": "(stereo not given)", "values": [{"measurement": "EC50", "setting": "[7]", "value": "> 79.4 µM (not active)"}, {"measurement": "EC50", "setting": "[8]", "value": "> 79.4 µM (not active)"}, {"measurement": "EC50", "setting": "[9]", "value": "> 79.4 µM (not active)"}]}
{"smiles": "O=C(NCC(=O)N1CCN(c2ncccn2)CC1)c1ccccc1OC(F)F", "values": [{"measurement": "AC50", "setting": "[1]", "value": "3.72 µM (active)"}, {"measurement": "AC50", "setting": "[2]", "value": "2.86 µM (active)"}, {"measurement": "AC50", "setting": "[3]", "value": "13.1 µM (active)"}, {"measurement": "AC50", "setting": "[4]", "value": "2.79 µM (active)"}]}
{"smiles": "Cc1ccc(C(c2nnnn2CS(=O)(=O)c2ccc(C)cc2)N2CCCC2)cc1", "note": "(stereo not given)", "values": [{"measurement": "AC50", "setting": "[1]", "value": "3.97 µM (active)"}, {"measurement": "AC50", "setting": "[2]", "value": "3.55 µM (active)"}, {"measurement": "AC50", "setting": "[3]", "value": "2.35 µM (active)"}, {"measurement": "AC50", "setting": "[4]", "value": "3.22 µM (active)"}]}
{"smiles": "O=C(CCC(=O)Nc1cccc([N+](=O)[O-])c1)N/N=C/c1cccs1", "values": [{"measurement": "IC50", "setting": "[10]", "value": "83.3 µM (inactive)"}, {"measurement": "IC50", "setting": "[11]", "value": "8.34 µM (active)"}, {"measurement": "IC50", "setting": "[12]", "value": "5.26 µM (active)"}]}
{"smiles": "COCCNC(=O)/C(C#N)=C/c1cc(C)n(C2CCCCC2)c1C", "values": [{"measurement": "EC50", "setting": "[13]", "value": "> 67.5 µM (inactive)"}]}
{"smiles": "COc1ccccc1-c1c[nH]c(C(O)c2cc(Cl)cc(Cl)c2)n1", "note": "(stereo not given)", "values": [{"measurement": "IC50", "setting": "[10]", "value": "83.3 µM (inactive)"}, {"measurement": "IC50", "setting": "[11]", "value": "3.26 µM (active)"}, {"measurement": "IC50", "setting": "[12]", "value": "2.38 µM (active)"}]}
